In brackets after ≈: the same amount, converted by molar mass.
What was measured:
[1] = biological target: Tyrosine-protein kinase JAK2 (Homo sapiens, UniProt O60674); assay: Inhibition of JAK2 (unknown origin)
[2] = Plasma protein binding in human assessed as unbound fraction at 2 uM incubated for 4 hrs by LC-MS/MS analysis; format: ADME, cell-free
[3] = biological target: Cytochrome P450 3A4 (Homo sapiens, UniProt P08684); assay: Inhibition of CYP3A4 in human liver microsomes using midazolam 1-hydroxylation as substrate incubated for 10 mins in presence of NADPH by LC-MS/MS analysis; format: ADME, Microsome
[4] = biological target: Serine/threonine-protein kinase 3 (Homo sapiens, UniProt Q13188); assay: Inhibition of MST2 (unknown origin)
[5] = Solubility in compound in FassIF at pH 6.5 incubated for 24 hrs by HPLC-UV analysis; format: physicochemical
[6] = Effect on IL-2 secretion in human T cells by ELISA method; format: functional, cell-based; conditions: T-cell
[7] = Toxicity in C57BL/6 mouse implanted with mouse MC38 cells assessed as effect on body weight loss at high dose, po BID measured after 12 days in presence of anti-PD-1; format: organism-based; conditions: in vivo, 288 h, time 12 day
[8] = system: MC-38; assay: Antitumor activity against mouse MC38 cells implanted in C57BL/6 mouse model assessed as tumor growth inhibition at 3 mg/kg, po BID measured after 12 days relative to control; format: functional; conditions: MC-38, 288 h, time 12 day, read-out: TGI
[9] = biological target: Serine/threonine-protein kinase PLK4 (Homo sapiens, UniProt O00444); assay: Inhibition of PLK4 (unknown origin)
Serine/threonine-protein kinase PLK4, sequence (O00444 whole entry): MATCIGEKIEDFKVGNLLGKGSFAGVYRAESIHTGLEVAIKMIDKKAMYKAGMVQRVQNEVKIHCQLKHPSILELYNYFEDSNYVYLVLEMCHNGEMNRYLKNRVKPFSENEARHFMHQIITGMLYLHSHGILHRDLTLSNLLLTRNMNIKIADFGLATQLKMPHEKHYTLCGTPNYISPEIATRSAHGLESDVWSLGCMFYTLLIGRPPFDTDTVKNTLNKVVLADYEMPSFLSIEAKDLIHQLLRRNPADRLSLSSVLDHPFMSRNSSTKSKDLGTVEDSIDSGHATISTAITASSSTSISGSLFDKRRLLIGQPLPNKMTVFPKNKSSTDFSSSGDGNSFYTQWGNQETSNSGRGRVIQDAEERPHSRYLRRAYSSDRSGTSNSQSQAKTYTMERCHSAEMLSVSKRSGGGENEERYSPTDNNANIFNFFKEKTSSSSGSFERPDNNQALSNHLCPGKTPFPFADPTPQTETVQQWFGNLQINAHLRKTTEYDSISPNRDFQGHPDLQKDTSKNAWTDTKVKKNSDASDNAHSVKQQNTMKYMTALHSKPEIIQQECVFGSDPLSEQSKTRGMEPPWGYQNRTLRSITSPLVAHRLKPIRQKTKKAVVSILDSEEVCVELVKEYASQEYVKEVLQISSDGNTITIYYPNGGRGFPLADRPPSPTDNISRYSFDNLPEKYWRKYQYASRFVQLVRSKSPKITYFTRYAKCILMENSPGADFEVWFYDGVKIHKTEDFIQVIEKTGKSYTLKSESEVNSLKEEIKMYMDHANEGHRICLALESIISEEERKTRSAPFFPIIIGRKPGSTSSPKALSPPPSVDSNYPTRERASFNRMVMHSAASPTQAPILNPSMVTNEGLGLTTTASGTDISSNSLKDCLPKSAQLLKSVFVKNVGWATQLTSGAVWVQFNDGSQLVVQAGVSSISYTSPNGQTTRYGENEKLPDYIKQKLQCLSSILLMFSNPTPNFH

[10] = system: CT26; assay: Antitumor activity against mouse CT26 cells implanted in Balb/c mouse model assessed as tumor growth inhibition at high dose administered as po BID measured after 15 days relative to control; format: functional; conditions: time 15 day
[11] = biological target: Voltage-gated inwardly rectifying potassium channel KCNH2 (Homo sapiens, UniProt Q12809); assay: Inhibition of human ERG expressed in CHO cells; format: toxicity, cell-based
Voltage-gated inwardly rectifying potassium channel KCNH2, sequence (Q12809 whole entry): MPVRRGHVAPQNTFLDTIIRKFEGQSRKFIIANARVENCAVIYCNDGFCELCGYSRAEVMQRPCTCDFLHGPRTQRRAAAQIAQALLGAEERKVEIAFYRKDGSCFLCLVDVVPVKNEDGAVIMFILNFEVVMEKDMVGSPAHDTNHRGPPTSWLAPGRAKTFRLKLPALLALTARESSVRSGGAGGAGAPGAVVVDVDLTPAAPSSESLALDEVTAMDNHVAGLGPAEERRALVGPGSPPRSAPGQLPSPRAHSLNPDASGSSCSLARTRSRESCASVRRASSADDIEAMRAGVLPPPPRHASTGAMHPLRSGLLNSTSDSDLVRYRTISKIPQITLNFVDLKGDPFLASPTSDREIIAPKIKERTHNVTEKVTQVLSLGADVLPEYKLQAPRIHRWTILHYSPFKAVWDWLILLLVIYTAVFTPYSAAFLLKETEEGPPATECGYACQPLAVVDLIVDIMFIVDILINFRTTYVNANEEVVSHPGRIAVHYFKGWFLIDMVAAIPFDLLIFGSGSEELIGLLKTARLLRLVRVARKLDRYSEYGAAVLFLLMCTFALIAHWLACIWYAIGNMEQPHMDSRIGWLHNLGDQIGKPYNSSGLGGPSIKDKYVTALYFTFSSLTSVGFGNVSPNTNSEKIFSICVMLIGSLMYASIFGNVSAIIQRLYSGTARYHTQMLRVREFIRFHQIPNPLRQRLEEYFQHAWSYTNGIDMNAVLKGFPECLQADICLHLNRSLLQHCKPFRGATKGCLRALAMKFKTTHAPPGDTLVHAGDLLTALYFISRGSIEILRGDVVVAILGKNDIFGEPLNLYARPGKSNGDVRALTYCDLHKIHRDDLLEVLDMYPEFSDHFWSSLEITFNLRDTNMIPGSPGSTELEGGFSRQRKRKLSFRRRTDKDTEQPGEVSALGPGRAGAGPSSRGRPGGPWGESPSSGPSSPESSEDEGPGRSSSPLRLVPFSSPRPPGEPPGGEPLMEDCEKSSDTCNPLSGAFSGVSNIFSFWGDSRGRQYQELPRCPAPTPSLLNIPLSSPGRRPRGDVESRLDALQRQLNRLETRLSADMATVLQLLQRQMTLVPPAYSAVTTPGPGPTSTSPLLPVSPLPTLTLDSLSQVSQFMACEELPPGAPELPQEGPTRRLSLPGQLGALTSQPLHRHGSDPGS

[12] = biological target: Tyrosine-protein kinase Lyn (Homo sapiens, UniProt P07948); assay: Inhibition of LYNa (unknown origin)
[13] = biological target: Interleukin-1 receptor-associated kinase 4 (Homo sapiens, UniProt Q9NWZ3); assay: Inhibition of IRAK4 (unknown origin)
[14] = Toxicity in C57BL/6 mouse implanted with mouse MC38 cells assessed as increase in survival at high dose, po BID measured after 12 days; format: organism-based; conditions: in vivo, 288 h, time 12 day
[15] = biological target: Serine/threonine-protein kinase PAK 1 (Homo sapiens, UniProt Q13153); assay: Inhibition of PAK1 (unknown origin)
Serine/threonine-protein kinase PAK 1, sequence (Q13153 whole entry): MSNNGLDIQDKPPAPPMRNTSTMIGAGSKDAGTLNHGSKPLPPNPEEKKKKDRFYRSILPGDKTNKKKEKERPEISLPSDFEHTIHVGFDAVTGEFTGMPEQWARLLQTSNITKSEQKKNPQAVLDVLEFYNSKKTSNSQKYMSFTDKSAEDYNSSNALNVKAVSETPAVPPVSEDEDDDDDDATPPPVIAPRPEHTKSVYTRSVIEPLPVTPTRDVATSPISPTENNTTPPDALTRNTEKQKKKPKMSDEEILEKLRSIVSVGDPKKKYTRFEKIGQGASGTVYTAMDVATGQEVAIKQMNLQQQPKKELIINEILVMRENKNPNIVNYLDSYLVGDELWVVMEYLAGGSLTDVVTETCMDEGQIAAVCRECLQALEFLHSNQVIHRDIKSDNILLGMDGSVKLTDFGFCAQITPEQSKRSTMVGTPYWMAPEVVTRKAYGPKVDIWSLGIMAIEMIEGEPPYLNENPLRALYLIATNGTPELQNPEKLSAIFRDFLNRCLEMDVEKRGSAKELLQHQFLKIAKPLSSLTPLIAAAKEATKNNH

[16] = biological target: Non-receptor tyrosine-protein kinase TYK2 (Homo sapiens, UniProt P29597); assay: Inhibition of TYK2 (unknown origin)
[17] = in vivo; conditions: Beagle, dog, iv, 1 mg/kg
Description: Volume of distribution in Beagle dog at 1 mg/kg, iv

[18] = Toxicity in C57BL/6 mouse implanted with mouse MC38 cells assessed as effect on body weight loss at high dose, po BID measured after 12 days; format: organism-based; conditions: in vivo, 288 h, time 12 day
[19] = Dose normalized AUC (0 to 24 hrs) in Sprague-Dawley rat at 10 mg/kg, po; format: ADME, organism-based; conditions: in vivo
[20] = biological target: Serine/threonine-protein kinase TAO2 (Homo sapiens, UniProt Q9UL54); assay: Inhibition of TAOK2 (unknown origin)
Serine/threonine-protein kinase TAO2, sequence (Q9UL54 whole entry): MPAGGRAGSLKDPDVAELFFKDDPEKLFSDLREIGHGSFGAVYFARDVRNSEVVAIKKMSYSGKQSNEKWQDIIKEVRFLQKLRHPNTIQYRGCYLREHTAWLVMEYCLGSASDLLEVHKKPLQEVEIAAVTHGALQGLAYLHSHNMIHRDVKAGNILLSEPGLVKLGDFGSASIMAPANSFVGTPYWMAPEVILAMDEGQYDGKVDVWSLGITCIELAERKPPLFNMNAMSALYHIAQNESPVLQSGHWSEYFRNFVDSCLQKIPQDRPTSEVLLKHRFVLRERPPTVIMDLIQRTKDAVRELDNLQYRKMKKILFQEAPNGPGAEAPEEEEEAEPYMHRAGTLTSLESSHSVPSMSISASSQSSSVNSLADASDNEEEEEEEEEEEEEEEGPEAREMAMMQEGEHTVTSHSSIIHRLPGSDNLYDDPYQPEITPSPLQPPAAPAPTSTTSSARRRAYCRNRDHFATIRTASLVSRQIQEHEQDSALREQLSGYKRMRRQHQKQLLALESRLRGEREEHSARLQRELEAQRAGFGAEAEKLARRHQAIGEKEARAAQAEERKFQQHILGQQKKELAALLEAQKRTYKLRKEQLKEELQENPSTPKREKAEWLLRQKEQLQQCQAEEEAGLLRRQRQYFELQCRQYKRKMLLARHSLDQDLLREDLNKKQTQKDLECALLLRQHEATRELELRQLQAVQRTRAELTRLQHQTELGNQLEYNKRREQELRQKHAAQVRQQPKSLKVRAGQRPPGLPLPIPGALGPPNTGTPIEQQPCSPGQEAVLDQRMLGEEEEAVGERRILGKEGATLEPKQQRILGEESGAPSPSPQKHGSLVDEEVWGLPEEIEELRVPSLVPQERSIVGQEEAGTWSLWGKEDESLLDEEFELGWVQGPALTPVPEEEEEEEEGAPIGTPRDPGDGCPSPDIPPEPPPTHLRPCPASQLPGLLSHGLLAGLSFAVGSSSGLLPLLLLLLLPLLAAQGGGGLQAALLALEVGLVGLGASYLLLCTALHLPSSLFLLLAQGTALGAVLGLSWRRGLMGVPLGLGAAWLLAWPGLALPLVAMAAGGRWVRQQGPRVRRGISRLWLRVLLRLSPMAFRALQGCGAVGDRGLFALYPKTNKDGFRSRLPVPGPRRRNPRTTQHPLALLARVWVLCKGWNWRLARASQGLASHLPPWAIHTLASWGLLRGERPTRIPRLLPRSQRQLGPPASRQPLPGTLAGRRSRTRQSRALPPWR

[21] = Toxicity in C57BL/6 mouse implanted with mouse MC38 cells assessed as effect on body weight loss at low dose, po BID measured after 12 days; format: organism-based; conditions: in vivo, 288 h, time 12 day
[22] = system: MC-38; assay: Antitumor activity against mouse MC38 cells implanted in C57BL/6 mouse model assessed as tumor growth inhibition at 12 mg/kg, po BID measured after 12 days relative to control; format: functional; conditions: MC-38, 288 h, time 12 day, read-out: TGI
[23] = system: MC-38; assay: Synergistic antitumor activity against mouse MC38 cells implanted in C57BL/6 mouse model assessed as CDI value at high dose, po BID measured after 12 days in presence of anti-PD-1; format: functional; conditions: time 12 day
[24] = in vivo; conditions: Sprague-Dawley, rat, iv, 1 mg/kg
Description: Volume of distribution in Sprague-Dawley rat at 1 mg/kg, iv

[25] = biological target: Cytochrome P450 2C9 (Homo sapiens, UniProt P11712); assay: Inhibition of CYP2C9 in human liver microsomes using diclofenac 4-hydroxylation as substrate incubated for 10 mins in presence of NADPH by LC-MS/MS analysis; format: ADME, Microsome
[26] = Oral bioavailability in Balb/c mouse at 10 mg/kg; format: ADME, organism-based; conditions: in vivo
[27] = in vivo; conditions: Sprague-Dawley, rat, plasma, iv, 1 mg/kg
Description: Clearance in Sprague-Dawley rat plasma at 1 mg/kg, iv

[28] = Plasma protein binding in dog assessed as unbound fraction at 2 uM incubated for 4 hrs by LC-MS/MS analysis; format: ADME, cell-free, Canis lupus familiaris
[29] = Plasma protein binding in cynomolgous monkey assessed as unbound fraction at 2 uM incubated for 4 hrs by LC-MS/MS analysis; format: ADME, cell-free, Macaca fascicularis; conditions: cynomolgus monkey
[30] = Genotoxicity in Salmonella typhimurium TA1537 incubated for 48 to 72 hrs in presence of S9 fraction by AMES test; format: toxicity, subcellular; conditions: salmonella enterica subsp. enterica serovar typhimurium, time 48-72 hrs
[31] = in vivo; conditions: Beagle, dog, po, 2 mg/kg

Tyrosine-protein kinase JAK2, sequence (O60674 whole entry): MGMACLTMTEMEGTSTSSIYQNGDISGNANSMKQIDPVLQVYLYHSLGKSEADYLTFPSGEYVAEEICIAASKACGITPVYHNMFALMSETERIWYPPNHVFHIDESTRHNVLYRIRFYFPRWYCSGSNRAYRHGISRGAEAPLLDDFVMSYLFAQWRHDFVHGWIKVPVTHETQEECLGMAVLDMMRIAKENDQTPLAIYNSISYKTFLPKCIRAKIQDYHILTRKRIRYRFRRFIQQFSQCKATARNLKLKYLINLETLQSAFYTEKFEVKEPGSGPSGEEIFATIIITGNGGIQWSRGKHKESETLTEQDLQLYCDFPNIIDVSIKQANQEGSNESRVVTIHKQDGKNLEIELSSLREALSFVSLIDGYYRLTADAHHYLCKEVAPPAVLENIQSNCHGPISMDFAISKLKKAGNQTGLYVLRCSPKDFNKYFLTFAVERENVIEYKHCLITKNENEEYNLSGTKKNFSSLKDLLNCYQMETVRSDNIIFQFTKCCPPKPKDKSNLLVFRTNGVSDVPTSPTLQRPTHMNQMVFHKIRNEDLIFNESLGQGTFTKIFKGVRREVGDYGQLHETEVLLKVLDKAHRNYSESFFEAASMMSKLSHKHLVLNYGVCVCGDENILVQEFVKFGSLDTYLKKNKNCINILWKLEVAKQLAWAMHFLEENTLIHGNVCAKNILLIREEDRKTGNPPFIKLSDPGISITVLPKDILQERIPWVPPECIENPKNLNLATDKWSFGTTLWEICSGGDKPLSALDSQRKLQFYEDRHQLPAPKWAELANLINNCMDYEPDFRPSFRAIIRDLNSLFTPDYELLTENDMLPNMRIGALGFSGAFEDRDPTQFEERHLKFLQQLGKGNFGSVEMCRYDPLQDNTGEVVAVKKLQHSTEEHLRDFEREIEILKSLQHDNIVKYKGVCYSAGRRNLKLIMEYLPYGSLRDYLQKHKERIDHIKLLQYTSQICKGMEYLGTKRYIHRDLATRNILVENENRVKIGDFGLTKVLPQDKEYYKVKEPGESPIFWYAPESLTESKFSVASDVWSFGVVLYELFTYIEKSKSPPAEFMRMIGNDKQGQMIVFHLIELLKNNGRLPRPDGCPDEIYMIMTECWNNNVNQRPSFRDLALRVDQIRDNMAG

In the case of `COc1cc(Nc2ccc3c(n2)CN(C)C32CCN(C3COC3)CC2)c(C(N)=O)nc1-c1cccc2c1ncn2C`, the IC50 [1] is reported as over 10 µM, the fraction unbound at 4 h, 2 µM [2] is reported as 0.129 and the IC50 [3] is reported as over 50 µM. It also gave an IC50 [4] of over 10 µM, a solubility at 24 h [5] of 18.9 µM (≈ 10.5 µg/mL) and an EC50 [6] of 0.0388 µM. The Activity [7] was “Non-toxic”, the inhibition in vivo at 3 mg/kg [8] was 34.9% and the IC50 [9] was over 10 µM. The TGI [10] was 94.3%, the IC50 [11] was over 10 µM and the IC50 [12] was 5.14 µM. The IC50 [13] was 3.5 µM, the Activity [14] was “Non-toxic” and the IC50 [15] was over 10 µM. The IC50 [16] was over 10 µM, the Vd [17] was 5.58 L/kg and the Activity [18] was “Non-toxic”. For the same molecule, the AUC/dose [19] was 593.6 ng·h/mL, the IC50 [20] was over 10 µM and the Activity [21] was “Non-toxic”. For the same molecule, the inhibition in vivo at 12 mg/kg [22] was 59.4%, the Activity [23] was 0.57 and the Vd [24] was 2.2 L/kg. For the same molecule, the IC50 [25] was over 50 µM, the bioavailability [26] was 62.5% and the clearance [27] was 9.67 mL/min/kg. The fraction unbound at 4 h, 2 µM [28] was 0.309, the fraction unbound at 4 h, 2 µM [29] was 0.153 and the Activity [30] was “Non-toxic”. The bioavailability [31] was 41.5%.
